Series [1] in a line: Caco2 assay (permeability, Papp A-B). Type of series: in vitro ADME. Particulars: human, Caco-2, absorptive direction (A-B), 50 μM test compound, 4% BSA in receiver. A digest of the protocol:
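Absorptive (A-B) Papp: 50 μM test compound in HBSS added to apical side of 22-25-day Caco-2 monolayers (TEER 300 Ω·cm^2), receiver buffer containing 4% BSA. After 120 min at 37 °C, 5% CO2, both sides analysed by LCMS; Papp calculated from flux rate normalized to area and donor amount.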

The target of series [2] is KRAS G12V (Homo sapiens, UniProt P01116, G12V). Put plainly: GDP-GTP exchange assay (KRAS G12V).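 Also: one dagger IC50 up to 100 nM and two daggers above 100 nM up to 1 μM.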 Format: biochemical. As to conditions: bodipy-GDP/GppNHp exchange with SOS1; 3 h incubation after GppNHp-SOS1. The gist of the method: (§1)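 IC50 came from a four-parameter fit of fluorescence loss (485/520 nm) as SOS1 (150 nM) swapped bodipy-GDP for GppNHp (500 μM) on 2.5 nM KRAS, final concentrations. Compounds were pre-incubated 4 h at r.t. (pH 7.5 Hepes, 10 mM MgCl2); exchange ran 2 h (G12D) or 3 h (G12V).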
KRAS G12V, sequence (P01116 1-188 isoform P01116-2 G12V): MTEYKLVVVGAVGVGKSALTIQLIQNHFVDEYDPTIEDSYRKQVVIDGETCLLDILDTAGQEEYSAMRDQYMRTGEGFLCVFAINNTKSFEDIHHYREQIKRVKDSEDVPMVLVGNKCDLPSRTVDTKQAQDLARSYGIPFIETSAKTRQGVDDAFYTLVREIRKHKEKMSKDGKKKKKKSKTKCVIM

Series [3] concerns the target KRAS G12D (Homo sapiens, UniProt P01116, G12D). Put plainly: GDP-GTP exchange assay (KRAS G12D).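 Also: one dagger IC50 up to 100 nM and two daggers above 100 nM up to 1 μM.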 Particulars: bodipy-GDP/GppNHp exchange with SOS1; 4 h pre-incubation, 2 h reaction. Type of series: biochemical. The gist of the method:
as §1

Consider 9 compounds from patent publication US20250195536A1, “BICYCLOOCTANE KRAS INHIBITORS” (Incyte Corporation, priority 2023, published 2025).

Usually Papp A→B stands for how fast a substance crosses the layer from the apical side. Low values mean poor permeation, high ones ready permeation.

The structures appear in SMILES notation.

KRAS G12D, sequence (P01116 1-188 isoform P01116-2 G12D): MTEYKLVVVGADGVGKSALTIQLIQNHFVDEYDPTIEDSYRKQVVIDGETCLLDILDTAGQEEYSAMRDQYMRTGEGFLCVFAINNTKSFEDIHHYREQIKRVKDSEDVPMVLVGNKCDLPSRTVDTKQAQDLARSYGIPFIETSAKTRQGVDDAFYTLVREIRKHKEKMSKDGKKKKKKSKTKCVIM

Regarding `Cc1ccnc(N2C[C@@H]3C[C@H](C2)N(C(=O)C2CC2)[C@H]3c2cc3c(C)nc4c(F)c(-c5cccc(Cl)c5Cl)c(CCC#N)cc4c3n2[C@H]2[C@H]3CN[C@@H]2C3)c1F` (atropisomer, axis not shown; (Ra)) [Example 51, 3-((Ra)-1-((1R,4R,5S)-2-azabicyclo[2.1.1]hexan-5-yl)-2-((1S,5R,7R)-6-(cyclopropanecarbonyl)-3-(3-fluoro-4-methylpyridin-2-yl)-3,6-diazabicyclo[3.2.1]octan-7-yl)-7-(2,3-dichlorophenyl)-6-fluoro-4-methyl-1H-pyrrolo[3,2-c]quinolin-8-yl)propanenitrile], in series [1], the Papp A→B at 120 min, 50 μM fell in the range of 0.5 to 1 ×10⁻⁶ cm/s. Moreover, in series [2], the “G12V_exchange (KRAS_G12V exchange assay IC50)” value (shortened to “G12V_exchange”) is reported as “†”. Further, in series [3], the “G12D_exchange (KRAS_G12D exchange assay IC50)” value (“G12D_exchange” for short) was “†”.
In the case of `Cc1ccc(F)c(N2C[C@@H]3C[C@H](C2)N(C(=O)C2CC2)[C@H]3c2cc3c(C)nc4c(F)c(-c5cccc(Cl)c5Cl)c(CCC#N)cc4c3n2[C@H]2[C@H]3CN[C@@H]2C3)n1` (atropisomer, axis not shown; (Ra)) [Example 52, 3-((Ra)-1-((1R,4R,5S)-2-azabicyclo[2.1.1]hexan-5-yl)-2-((1S,5R,7R)-6-(cyclopropanecarbonyl)-3-(3-fluoro-6-methylpyridin-2-yl)-3,6-diazabicyclo[3.2.1]octan-7-yl)-7-(2,3-dichlorophenyl)-6-fluoro-4-methyl-1H-pyrrolo[3,2-c]quinolin-8-yl)propanenitrile], the Papp A→B at 120 min, 50 μM in series [1] is 0.5 to 1 ×10⁻⁶ cm/s. The “G12V_exchange” value in series [2] is on record as “†”. In addition, the “G12D_exchange” value in series [3] is “††”.
In the case of `Cc1cnc(N2C[C@@H]3C[C@H](C2)N(C(=O)C2CC2)[C@H]3c2cc3c(C)nc4c(F)c(-c5cccc(Cl)c5Cl)c(CCC#N)cc4c3n2[C@H]2[C@H]3CN[C@@H]2C3)c(F)c1` (atropisomer, axis not shown; (Ra)) [Example 53, 3-((Ra)-1-((1R,4R,5S)-2-azabicyclo[2.1.1]hexan-5-yl)-2-((1S,5R,7R)-6-(cyclopropanecarbonyl)-3-(3-fluoro-5-methylpyridin-2-yl)-3,6-diazabicyclo[3.2.1]octan-7-yl)-7-(2,3-dichlorophenyl)-6-fluoro-4-methyl-1H-pyrrolo[3,2-c]quinolin-8-yl)propanenitrile], the Papp A→B at 120 min, 50 μM in series [1] lay within 0.5 to 1 ×10⁻⁶ cm/s. Further, in series [2], the “G12V_exchange” value is reported as “†”. Moreover, the “G12D_exchange” value in series [3] is listed as “†”.
`Cc1nc2c(F)c(-c3cccc(Cl)c3Cl)c(CCC#N)cc2c2c1cc([C@H]1[C@H]3C[C@H](CN(c4nccc(C(F)F)c4F)C3)N1C(=O)C1CC1)n2[C@H]1[C@H]2CN[C@@H]1C2` (atropisomer, axis not shown; (Ra)) [Example 54, 3-((Ra)-1-((1R,4R,5S)-2-azabicyclo[2.1.1]hexan-5-yl)-2-((1S,5R,7R)-6-(cyclopropanecarbonyl)-3-(4-(difluoromethyl)-3-fluoropyridin-2-yl)-3,6-diazabicyclo[3.2.1]octan-7-yl)-7-(2,3-dichlorophenyl)-6-fluoro-4-methyl-1H-pyrrolo[3,2-c]quinolin-8-yl)propanenitrile]: the apparent permeability from apical to basolateral (Papp A→B) at 120 min, 50 μM in series [1] was not above 0.5 ×10⁻⁶ cm/s. For the same compound, in series [2], the “G12V_exchange” value is reported as “†”. Also, in series [3], the “G12D_exchange” value is “†”.
In the case of `COc1ccnc(N2C[C@@H]3C[C@H](C2)N(C(=O)C2CC2)[C@H]3c2cc3c(C)nc4c(F)c(-c5cccc(Cl)c5Cl)c(CCC#N)cc4c3n2[C@H]2[C@H]3CN[C@@H]2C3)c1F` (atropisomer, axis not shown; (Ra)) [Example 55, 3-((Ra)-1-((1R,4R,5S)-2-azabicyclo[2.1.1]hexan-5-yl)-2-((1S,5R,7R)-6-(cyclopropanecarbonyl)-3-(3-fluoro-4-methoxypyridin-2-yl)-3,6-diazabicyclo[3.2.1]octan-7-yl)-7-(2,3-dichlorophenyl)-6-fluoro-4-methyl-1H-pyrrolo[3,2-c]quinolin-8-yl)propanenitrile], the Papp A→B at 120 min, 50 μM in series [1] lay within 0.5 to 1 ×10⁻⁶ cm/s. Besides, the “G12V_exchange” value in series [2] is reported as “†”. Moreover, the “G12D_exchange” value in series [3] is reported as “††”.
Turning to `Cc1nc2c(F)c(-c3cccc(Cl)c3Cl)c(CCC#N)cc2c2c1cc([C@H]1[C@H]3C[C@H](CN(c4ccn(C(F)F)c(=O)c4)C3)N1C(=O)C1CC1)n2[C@H]1[C@H]2CN[C@@H]1C2` (atropisomer, axis not shown; (Ra)) [Example 56, 3-((Ra)-1-((1R,4R,5S)-2-azabicyclo[2.1.1]hexan-5-yl)-2-((1S,5R,7R)-6-(cyclopropanecarbonyl)-3-(1-(difluoromethyl)-2-oxo-1,2-dihydropyridin-4-yl)-3,6-diazabicyclo[3.2.1]octan-7-yl)-7-(2,3-dichlorophenyl)-6-fluoro-4-methyl-1H-pyrrolo[3,2-c]quinolin-8-yl)propanenitrile], the apparent permeability from apical to basolateral (Papp A→B) at 120 min, 50 μM in series [1] is not above 0.5 ×10⁻⁶ cm/s. In addition, in series [2], the “G12V_exchange” value was “†”. Further, the “G12D_exchange” value in series [3] is “†”.
Turning to `Cc1nc2c(F)c(-c3cccc(Cl)c3Cl)c(CCC#N)cc2c2c1cc([C@H]1[C@H]3C[C@H](CN(c4ccn(CC(C)C)c(=O)c4)C3)N1C(=O)C1CC1)n2[C@H]1[C@H]2CN[C@@H]1C2` (atropisomer, axis not shown; (Ra)) [Example 58, 3-((Ra)-1-((1R,4R,5S)-2-azabicyclo[2.1.1]hexan-5-yl)-2-((1S,5R,7R)-6-(cyclopropanecarbonyl)-3-(1-isobutyl-2-oxo-1,2-dihydropyridin-4-yl)-3,6-diazabicyclo[3.2.1]octan-7-yl)-7-(2,3-dichlorophenyl)-6-fluoro-4-methyl-1H-pyrrolo[3,2-c]quinolin-8-yl)propanenitrile], the Papp A→B at 120 min, 50 μM in series [1] was not above 0.5 ×10⁻⁶ cm/s. In series [2], the “G12V_exchange” value is given as “†”. Besides, in series [3], the “G12D_exchange” value is recorded as “†”.
In the case of `COc1cc(N2C[C@@H]3C[C@H](C2)N(C(=O)C2CC2)[C@H]3c2cc3c(C)nc4c(F)c(-c5cccc(Cl)c5Cl)c(CCC#N)cc4c3n2[C@H]2[C@H]3CN[C@@H]2C3)ccn1` (atropisomer, axis not shown; (Ra)) [Example 59, 3-((Ra)-1-((1R,4R,5S)-2-azabicyclo[2.1.1]hexan-5-yl)-2-((1S,5R,7R)-6-(cyclopropanecarbonyl)-3-(2-methoxypyridin-4-yl)-3,6-diazabicyclo[3.2.1]octan-7-yl)-7-(2,3-dichlorophenyl)-6-fluoro-4-methyl-1H-pyrrolo[3,2-c]quinolin-8-yl)propanenitrile], the apparent permeability from apical to basolateral (Papp A→B) at 120 min, 50 μM in series [1] is not above 0.5 ×10⁻⁶ cm/s. In series [2], the “G12V_exchange” value is on record as “†”. The “G12D_exchange” value in series [3] is “†”.
As for `Cc1nc2c(F)c(-c3cccc(Cl)c3Cl)c(CCC#N)cc2c2c1cc([C@H]1[C@H]3C[C@H](CN(c4ccnc(C(F)F)c4)C3)N1C(=O)C1CC1)n2[C@H]1[C@H]2CN[C@@H]1C2` (atropisomer, axis not shown; (Ra)) [Example 60, 3-((Ra)-1-((1R,4R,5S)-2-azabicyclo[2.1.1]hexan-5-yl)-2-((1S,5R,7R)-6-(cyclopropanecarbonyl)-3-(2-(difluoromethyl)pyridin-4-yl)-3,6-diazabicyclo[3.2.1]octan-7-yl)-7-(2,3-dichlorophenyl)-6-fluoro-4-methyl-1H-pyrrolo[3,2-c]quinolin-8-yl)propanenitrile], the Papp A→B at 120 min, 50 μM in series [1] was not above 0.5 ×10⁻⁶ cm/s. The “G12V_exchange” value in series [2] is listed as “†”. For the same compound, in series [3], the “G12D_exchange” value is listed as “†”.
